{"source": "patent EP2108954A1", "about": "“A test system for detecting intracellular cyclic nucleotide level and methods and uses thereof” (Max-Planck-Gesellschaft zur Förderung der Wissenschaften …, priority 2008, dated 2009)", "target": "T1, Or22a and Or83b (Drosophila melanogaster, UniProt P81909+Q9VNB5)", "T1 construct": "expressed in transfected cells; host or cells: HEK293", "T1 sequence (P81909 1-397)": "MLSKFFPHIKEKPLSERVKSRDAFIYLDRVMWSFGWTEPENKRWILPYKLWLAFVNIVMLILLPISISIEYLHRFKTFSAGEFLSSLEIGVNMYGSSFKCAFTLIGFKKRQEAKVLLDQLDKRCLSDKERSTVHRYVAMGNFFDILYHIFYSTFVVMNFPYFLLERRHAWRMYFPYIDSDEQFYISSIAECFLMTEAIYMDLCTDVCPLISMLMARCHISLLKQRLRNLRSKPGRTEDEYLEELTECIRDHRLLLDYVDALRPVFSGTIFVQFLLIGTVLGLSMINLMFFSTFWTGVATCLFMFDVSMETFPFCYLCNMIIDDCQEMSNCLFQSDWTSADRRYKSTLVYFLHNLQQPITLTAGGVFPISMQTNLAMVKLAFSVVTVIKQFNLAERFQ", "T1 sequence (Q9VNB5 1-486)": "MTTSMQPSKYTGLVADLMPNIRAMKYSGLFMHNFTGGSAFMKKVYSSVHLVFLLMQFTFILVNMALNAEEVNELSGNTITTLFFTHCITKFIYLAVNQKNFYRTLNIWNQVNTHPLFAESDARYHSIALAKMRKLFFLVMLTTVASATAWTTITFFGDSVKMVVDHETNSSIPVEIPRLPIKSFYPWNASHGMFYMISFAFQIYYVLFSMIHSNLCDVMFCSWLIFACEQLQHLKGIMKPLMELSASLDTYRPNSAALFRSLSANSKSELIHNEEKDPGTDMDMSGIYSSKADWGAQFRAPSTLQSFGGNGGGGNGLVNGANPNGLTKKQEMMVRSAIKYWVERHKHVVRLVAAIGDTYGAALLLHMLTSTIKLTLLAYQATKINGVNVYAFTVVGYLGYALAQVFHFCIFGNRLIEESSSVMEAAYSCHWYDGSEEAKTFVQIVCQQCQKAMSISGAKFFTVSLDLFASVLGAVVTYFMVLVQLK", "experiment": "Whole-cell patch-clamp of currents in HEK293 cells coexpressing Or22a and Or83b", "format": "cell-based", "method": "In some experiments we transfected cells with pcDNA3-DOR22a-GFP or pcDNA3-DOR83b-GFP alone. We also examined the properties of DOR47a, which was cloned, using standard molecular biology methods into a pcDNA3.1(-) expression vector. To test for putative G-protein coupling, cells were transfected with the respective OR-DNA together with 1.5 µg hHCN2/pcDNA3 (provided by M. Biel, Munich, Germany), with 1 µg hKCNQ4/pcDNA3.1 or with 1 µg hCNGA2/pCMV6-XL4 (Origene, Rockville, MD, USA).\nIn brief, ion currents in HEK293 cells were measured at room temperature using whole-cell patch-clamp with appropriate compensation of series resistance and of capacitive currents. Additional experiments were performed in the outside-out configuration. Current measurements and data acquisition were performed using an EPC9 patch-clamp amplifier controlled by PatchMaster software (both HEKA Elektronik, Lambrecht, Germany). Patch-clamp pipettes were fabricated from borosilicate capillaries. Pipettes for whole-cell recordings had resistances of 2-4 MΩ for excised-patch recordings the pipette resistance was up to 15 MΩ.\nTo differentiate between ionotropic and metabotropic pathways of receptor activation (Fig. 2a-d) the pipette solution contained either 2 mM ATP plus 2 mM GTP or 2 mM ADP plus 2 mM GDP (both for whole-cell and outside-out configuration). For the preparation of Cl^--free solutions the chloride salts were substituted by gluconate salts. The pipette Cs^+ solution contained (in mM) 140 CsCl, 1 Mg-ATP, 10 EGTA, 10 HEPES (pH = 7.3), and the Cs^+ bath solution contained (in mM) 140 CsCl, 15 glucose, 15 HEPES (pH = 7.4). The Ca^2+-free bath solution contained (in mM) 140 NaCl, 15 glucose, 15 HEPES, and the Na^+-free bath solution contained (in mM) 140 NMDG-Cl, 10 CaCl2, 10 glucose, 15 HEPES.\nWith the exception of GDP-γ-S, which was applied via the patch pipette, all substances were applied to the bath using either a bath perfusion system (BPS4 from ALA, New York, USA) or a rapid solution changer (RSC160 from Biologic, Claix, France) which were controlled by the PatchMaster software (HEKA Elektronik).", "key": {"[1]": {"details": "Etb 100 nM, 1 s, whole-cell, -60 mV, Or22a C-terminal GFP fusion protein, ADP and GDP (-)"}, "[2]": {"details": "Etb 100 nM, 1 s, whole-cell, -60 mV, Or22a C-terminal GFP fusion protein, ATP and GTP (+)"}, "[3]": {"details": "Etb 100 nM, 1 s, whole-cell, -60 mV, Or22a N-terminal GFP fusion protein, ADP and GDP (-)"}, "[4]": {"details": "Etb 100 nM, 1 s, whole-cell, -60 mV, Or22a N-terminal GFP fusion protein, ATP and GTP (+)"}, "[5]": {"details": "short Etb application, whole-cell, -60 mV, Tab. 1"}, "[6]": {"details": "short Etb application, whole-cell, -60 mV, internal ATP and GTP, Tab. 1"}}, "note": "Like-named read-outs stand apart in the source and are kept apart here."}
{"smiles": "CCCC(=O)OCC", "note": "[Etb, ethyl butyrate]", "values": [{"measurement": "further increase of current", "setting": "100 µM Etb after stimulation with 100 µM 8-bromo-cAMP", "value": "+1.6 ± 3.8 % of current induced by 8-bromo-cAMP"}, {"measurement": "Etb-induced current in symmetrical Cs+ solutions", "setting": "140 mM Cs+ in pipette and bath solution, n = 6", "value": "No current was detected"}, {"measurement": "EC50", "setting": "EC50 of Etb-induced currents, 500 µM GDP-β-S in the pipette, n = 11", "value": 70, "unit": "nM"}, {"measurement": "latency of Ii", "setting": "Etb 100 nM, 1 s, whole-cell, -60 mV", "value": "< 0.5", "unit": "s"}, {"measurement": "Ii Decay time", "setting": "[1]", "value": "10.8 ± 0.6", "unit": "s"}, {"measurement": "Ii Peak size", "setting": "[1]", "value": "133 ± 51", "unit": "pA"}, {"measurement": "Ii Peak time", "setting": "[1]", "value": "1.13 ± 0.02", "unit": "s"}, {"measurement": "Im Decay time", "setting": "[1]", "value": "68 ± 8", "unit": "s"}, {"measurement": "Im Latency", "setting": "[1]", "value": "18 ± 8", "unit": "s"}, {"measurement": "Im Peak size", "setting": "[1]", "value": "77 ± 7", "unit": "PA"}, {"measurement": "Im Peak time", "setting": "[1]", "value": "43 ± 9", "unit": "s"}, {"measurement": "Ii Decay time", "setting": "[2]", "value": "10.5 ± 0.7", "unit": "s"}, {"measurement": "Ii Peak size", "setting": "[2]", "value": "100 ± 23", "unit": "pA"}, {"measurement": "Ii Peak time", "setting": "[2]", "value": "1.10 ± 0.03", "unit": "s"}, {"measurement": "Im Decay time", "setting": "[2]", "value": "79 ± 5", "unit": "s"}, {"measurement": "Im Latency", "setting": "[2]", "value": "10 ± 2", "unit": "s"}, {"measurement": "Im Peak size", "setting": "[2]", "value": "291 ± 54", "unit": "PA"}, {"measurement": "Im Peak time", "setting": "[2]", "value": "58 ± 4", "unit": "s"}, {"measurement": "Ii Decay time", "setting": "[3]", "value": "10.4 ± 0.9", "unit": "s"}, {"measurement": "Ii Peak size", "setting": "[3]", "value": "132 ± 38", "unit": "pA"}, {"measurement": "Ii Peak time", "setting": "[3]", "value": "0.90 ± 0.17", "unit": "s"}, {"measurement": "Im Decay time", "setting": "[3]", "value": "63 ± 9", "unit": "s"}, {"measurement": "Im Latency", "setting": "[3]", "value": "24 ± 5", "unit": "s"}, {"measurement": "Im Peak size", "setting": "[3]", "value": "51 ± 6", "unit": "PA"}, {"measurement": "Im Peak time", "setting": "[3]", "value": "44 ± 6", "unit": "s"}, {"measurement": "Ii Decay time", "setting": "[4]", "value": "10.2 ± 0.9", "unit": "s"}, {"measurement": "Ii Peak size", "setting": "[4]", "value": "98 ± 23", "unit": "pA"}, {"measurement": "Ii Peak time", "setting": "[4]", "value": "1.16 ± 0.06", "unit": "s"}, {"measurement": "Im Decay time", "setting": "[4]", "value": "80 ± 8", "unit": "s"}, {"measurement": "Im Latency", "setting": "[4]", "value": "11 ± 3", "unit": "s"}, {"measurement": "Im Peak size", "setting": "[4]", "value": "311 ± 51", "unit": "PA"}, {"measurement": "Im Peak time", "setting": "[4]", "value": "62 ± 9", "unit": "s"}, {"measurement": "Hill coefficient of olfactory receptor current (ORC)", "setting": "cells coexpressing Or22a, Or83b and hKCNQ4, n = 6", "value": 0.41}, {"measurement": "EC50", "setting": "cells coexpressing Or22a, Or83b and hKCNQ4, normalized to maximum response, n = 6, read-out: EC50 of olfactory receptor current (ORC)", "value": 0.256, "unit": "nM"}, {"measurement": "Hill coefficient of Etb-induced currents", "setting": "control conditions, n = 9", "value": 0.61}, {"measurement": "EC50", "setting": "control conditions, n = 9, read-out: EC50 of Etb-induced currents", "value": 0.677, "unit": "nM"}, {"measurement": "EC50", "setting": "half-maximal effect (current size), metabotropic current response", "value": "~0.7", "unit": "nM"}, {"measurement": "odorant concentration at which current size saturates", "setting": "metabotropic current response, Fig. 2f", "value": "about 100 nM"}, {"measurement": "odour-induced current in Cl^--free solutions", "setting": "n = 5", "value": "remained unchanged"}, {"measurement": "Ii peak", "setting": "[5]", "value": 1, "unit": "s"}, {"measurement": "Ii termination", "setting": "[5]", "value": 10, "unit": "s"}, {"measurement": "Im Latency", "setting": "[6]", "value": 10, "unit": "s"}, {"measurement": "Im peak", "setting": "[6]", "value": 60, "unit": "s"}, {"measurement": "Im termination", "setting": "[6]", "value": 80, "unit": "s"}]}
